# Results from patent US20040127403A1, “Methods for treating and preventing Gram-positive bacteremias” (priority 2002, published 2004).
# System: E. faecium A6345 Line-R
# Experiment: MIC, NCCLS broth microdilution
# Format: cell-based
# Method: The efficacy of ramoplanin was tested against recently isolated VRE that are resistant to linezolid and quinupristin/dalfopristin. The culture media containing ramoplanin was supplemented with 0.02% bovine serum albumin (BSA) to prevent ramoplanin binding to the plastic. MIC values were determined in both cation-adjusted Mueller-Hinton broth (CAMHB) and trypticase soy broth (TSB) by the National Committee for Clinical Laboratory Standards (NCCLS) broth microdilution method. Macromolecular biosynthesis experiments were done by following the incorporation of carbon-14-labeled N-acetylglucosamine, acetic acid, amino acids, uridine, and thymidine into peptidoglycan, fatty acid, protein, RNA and DNA, respectively.
# [1] = E. faecium A6345 Line-R. as printed, second row of Table 3
# [2] = E. faecium A6345 Line-R., first row of Table 3
Structure (SMILES),reference MIC for strains used for killing curve [1] [µg/mL],reference MIC for strains used for killing curve [2] [µg/mL]
CO[C@H]1/C=C/O[C@@]2(C)Oc3c(C)c(O)c4c(O)c(c(/C=N/N5CCN(C)CC5)c(O)c4c3C2=O)NC(=O)/C(C)=C\C=C\[C@H](C)[C@H](O)[C@@H](C)[C@@H](O)[C@@H](C)[C@H](OC(C)=O)[C@@H]1C [Rifampin],0.03,16
O=C(N[C@H](CO)[C@H](O)c1ccc([N+](=O)[O-])cc1)C(Cl)Cl [Chloramphenicol],16,16
